From patent US20250024871A1, “AMIDE COMPOUNDS AND THEIR USE AS FLAVOR MODIFIERS” (Firmenich Incorporated, priority 2021, published 2025)

Target: T1, T1R umami taste receptor (Homo sapiens, UniProt Q7RTX0+Q7RTX1)
T1 sequence (Q7RTX1 21-841): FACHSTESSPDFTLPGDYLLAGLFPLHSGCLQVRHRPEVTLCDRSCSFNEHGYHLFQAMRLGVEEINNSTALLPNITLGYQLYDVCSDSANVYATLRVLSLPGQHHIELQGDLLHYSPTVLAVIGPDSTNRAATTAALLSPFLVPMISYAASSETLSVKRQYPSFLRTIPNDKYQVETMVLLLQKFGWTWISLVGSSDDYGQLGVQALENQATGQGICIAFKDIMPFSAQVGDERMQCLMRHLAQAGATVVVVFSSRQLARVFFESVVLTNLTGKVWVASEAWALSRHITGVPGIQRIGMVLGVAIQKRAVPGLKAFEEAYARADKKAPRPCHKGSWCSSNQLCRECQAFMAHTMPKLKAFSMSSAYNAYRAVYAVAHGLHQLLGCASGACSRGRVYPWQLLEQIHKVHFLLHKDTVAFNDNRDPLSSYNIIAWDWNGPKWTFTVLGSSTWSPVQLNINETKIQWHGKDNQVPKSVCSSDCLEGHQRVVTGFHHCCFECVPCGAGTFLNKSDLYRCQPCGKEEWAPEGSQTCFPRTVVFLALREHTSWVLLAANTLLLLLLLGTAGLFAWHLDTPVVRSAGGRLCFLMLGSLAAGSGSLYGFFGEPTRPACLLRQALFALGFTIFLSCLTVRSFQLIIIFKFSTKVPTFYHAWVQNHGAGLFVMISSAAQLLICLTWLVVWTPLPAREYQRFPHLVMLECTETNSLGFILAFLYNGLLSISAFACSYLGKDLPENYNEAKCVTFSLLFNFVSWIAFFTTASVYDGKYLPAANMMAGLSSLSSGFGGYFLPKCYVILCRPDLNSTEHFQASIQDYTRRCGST
T1 sequence (Q7RTX0 21-852): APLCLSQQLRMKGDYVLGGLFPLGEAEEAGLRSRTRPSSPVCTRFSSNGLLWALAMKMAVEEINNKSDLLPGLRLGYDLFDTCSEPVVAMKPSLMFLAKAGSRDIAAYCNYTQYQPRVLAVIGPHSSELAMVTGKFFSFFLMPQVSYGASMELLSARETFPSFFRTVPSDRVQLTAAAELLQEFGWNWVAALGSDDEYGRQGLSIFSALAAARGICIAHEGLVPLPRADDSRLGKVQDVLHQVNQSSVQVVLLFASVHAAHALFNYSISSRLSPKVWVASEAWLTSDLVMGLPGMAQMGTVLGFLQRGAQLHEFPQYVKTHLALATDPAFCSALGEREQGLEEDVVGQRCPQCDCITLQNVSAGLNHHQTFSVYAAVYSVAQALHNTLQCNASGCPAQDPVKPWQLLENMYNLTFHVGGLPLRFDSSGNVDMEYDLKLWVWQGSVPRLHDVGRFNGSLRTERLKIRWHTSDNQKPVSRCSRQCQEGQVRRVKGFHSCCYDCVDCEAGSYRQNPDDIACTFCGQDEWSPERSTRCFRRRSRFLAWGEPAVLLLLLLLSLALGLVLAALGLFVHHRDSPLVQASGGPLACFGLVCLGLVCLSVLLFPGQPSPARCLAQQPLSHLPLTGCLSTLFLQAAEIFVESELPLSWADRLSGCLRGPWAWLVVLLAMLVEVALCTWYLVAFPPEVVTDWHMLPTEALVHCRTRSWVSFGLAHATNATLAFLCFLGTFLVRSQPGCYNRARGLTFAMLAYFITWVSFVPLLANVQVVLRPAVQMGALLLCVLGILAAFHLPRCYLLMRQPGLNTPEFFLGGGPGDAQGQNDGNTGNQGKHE
Test: in vitro cell-based assay having cells that express the T1R umami taste receptor (enhancement of MSG)
Details: for EC50: cells expressing T1R umami taste receptor, read-out: EC50 for enhancement of MSG binding
Protocol: Each of Compounds 101-183 was synthesized according to one of the general procedures set forth above in Examples 1. Thereafter, the compounds were tested in an in vitro cell-based assay having cells that express the T1R umami taste receptor. Dose-binding curves were recorded and the EC50 was determined for enhancement of MSG binding. Table 2 sets forth the calculated EC50 values for certain tested compounds as well as the MSG enhancement ratio at a particular concentration.

| Structure (SMILES) | EC50 | MSG Enh. Ratio (compound at 50 μM) | MSG Enh. Ratio (compound at 10 μM) | MSG Enh. Ratio (compound at 3 μM) |
| --- | --- | --- | --- | --- |
| COC(=O)[C@@H](CC(C)C)NC(=O)c1ccc(C)cc1 [Compound 101, Methyl (4-methylbenzoyl)-D-leucinate] | < 2 µM |  |  |  |
| CCOC(=O)[C@@H](CC(C)C)NC(=O)c1ccc(C)cc1 [Compound 102, Ethyl (4-methylbenzoyl)-D-leucinate] | < 2 µM |  |  |  |
| COC(=O)[C@H](CC(C)C)NC(=O)c1ccc(C)cc1 [Compound 103, Methyl (4-methylbenzoyl)-L-leucinate] | > 50 µM | 3.4 @ |  |  |
| COC(=O)[C@H](Cc1ccccc1)NC(=O)c1ccc(C)cc1 [Compound 104, Methyl (4-methylbenzoyl)-L-phenylalaninate] | > 50 µM |  | 3.3 @ |  |
| COC(=O)[C@H](Cc1ccccc1)NC(=O)c1ccc(OC)cc1 [Compound 105, Methyl (4-methoxybenzoyl)-L-phenylalaninate] | 36 µM | 6.5 @ |  |  |
| CCOC(=O)[C@@H](NC(=O)c1ccc(OC)cc1)C(C)C [Compound 106, Ethyl (4-methoxybenzoyl)-L-valinate] | 36 µM | 3.6 @ |  |  |
| COC(=O)[C@H](Cc1ccccc1)NC(=O)c1cccc(OC)c1 [Compound 107, Methyl (3-methoxybenzoyl)-L-phenylalaninate] | > 50 µM | 3.2 @ |  |  |
| CCOC(=O)[C@@H](NC(=O)c1cccc(OC)c1)C(C)C [Compound 108, Ethyl (3-methoxybenzoyl)-L-valinate] | > 50 µM | 2.7 @ |  |  |
| CCOc1ccc(C(=O)N[C@H](CC(C)C)C(=O)OC)cc1 [Compound 109, Methyl (4-ethoxybenzoyl)-D-leucinate] | 0.7 µM |  |  |  |
| CCOC(=O)[C@@H](NC(=O)c1ccc(COC)cc1)C(C)C [Compound 110, Ethyl (4-(methoxymethyl)benzoyl)-L-valinate] | > 50 µM | 2.7 @ |  |  |
| CCOC(=O)CC[C@H](NC(=O)c1ccc(C(C)C)cc1)C(=O)OCC [Compound 111, Diethyl (4-isopropylbenzoyl)-L-glutamate] | 26 µM | 4.4 @ |  |  |
| COC(=O)[C@H](Cc1ccccc1)NC(=O)c1ccccn1 [Compound 112, Methyl picolinoyl-L-phenylalaninate] | > 50 µM | 2.8 @ |  |  |
| COC(=O)[C@@H](Cc1ccccc1)NC(=O)c1ccc(C)c(C)c1 [Compound 113, Methyl (3,4-dimethylbenzoyl)-D-phenylalaninate] | 0.3 µM |  |  |  |
| COC(=O)[C@@H](CC(C)C)NC(=O)c1ccc(C)c(C)c1 [Compound 114, Methyl (3,4-dimethylbenzoyl)-D-leucinate] | 0.7 µM |  |  |  |
| CCOC(=O)[C@@H](CC(C)C)NC(=O)c1ccc(C)c(C)c1 [Compound 115, Ethyl (3,4-dimethylbenzoyl)-D-leucinate] | 0.1 µM |  |  |  |
| CCOC(=O)[C@H](CC(C)C)NC(=O)c1ccc(C)c(C)c1 [Compound 116, Ethyl (3,4-dimethylbenzoyl)-L-leucinate] |  |  |  | 3.7 @ |
| COC(=O)[C@@H](NC(=O)c1ccc(C)c(C)c1)C(C)C [Compound 117, Methyl (3,4-dimethylbenzoyl)-L-valinate] | 11.1 µM |  |  | 4.6 @ |
| CCOC(=O)[C@@H](NC(=O)c1ccc(C)c(C)c1)C(C)C [Compound 118, Ethyl (3,4-dimethylbenzoyl)-L-valinate] | 4.8 µM |  |  | 7.0 @ |
| COC(=O)[C@H](Cc1ccccc1)NC(=O)c1ccc(C)c(C)c1 [Compound 119, Methyl (3,4-dimethylbenzoyl)-L-phenylalaninate] | 8 µM |  |  | 4.6 @ |
| CCOC(=O)[C@H](Cc1ccccc1)NC(=O)c1ccc(C)c(C)c1 [Compound 120, Ethyl (3,4-dimethylbenzoyl)-L-phenylalaninate] | 12 µM |  | 4.6 @ |  |
| CCOC(=O)[C@H](Cc1ccc(OC)cc1)NC(=O)c1ccc(C)c(C)c1 [Compound 121, Ethyl (S)-2-(3,4-dimethylbenzamido)-3-(4-methoxyphenyl)propanoate] | 12 µM |  | 7.0 @ |  |
| CCOC(=O)CC[C@H](NC(=O)c1ccc(C)c(C)c1)C(=O)OCC [Compound 122, Diethyl (3,4-dimethylbenzoyl)-L-glutamate] | 2 µM |  |  | 4.9 @ |
| COC(=O)[C@H](Cc1ccccc1)NC(=O)c1ccc(OC)c(OC)c1 [Compound 123, Methyl (3,4-dimethoxybenzoyl)-L-phenylalaninate] | > 50 µM | 2.5 @ |  |  |
| COC(=O)[C@@H](NC(=O)c1ccc(OC)c(OC)c1)C(C)C [Compound 124, Methyl (3,4-dimethoxybenzoyl)-L-valinate] | > 50 µM | 1.8 @ |  |  |
| CC[C@H](C)[C@H](NC(=O)c1ccc(OC)c(OC)c1)C(=O)OC [Compound 125, Methyl (3,4-dimethoxybenzoyl)-L-isoleucinate] | > 50 µM | 2.7 @ |  |  |
| CCOC(=O)CC[C@H](NC(=O)c1cn(C)c2ccccc12)C(=O)OCC [Compound 134, Diethyl (1-methyl-1H-indole-3-carbonyl)-L-glutamate] | > 50 µM | 3.8 @ |  |  |

Next, values leading:

| EC50 | MSG Enh. Ratio (compound at 50 μM) | MSG Enh. Ratio (compound at 10 μM) | MSG Enh. Ratio (compound at 3 μM) | Structure (SMILES) |
| --- | --- | --- | --- | --- |
|  | 5.2 @ |  |  | CCOC(=O)CC[C@H](NC(=O)c1cc(OC)cc(OC)c1)C(=O)OCC [Compound 126, Diethyl (3,5-dimethoxybenzoyl)-L-glutamate] |
| > 50 µM | 3.4 @ |  |  | COC(=O)[C@@H](NC(=O)c1ccc2c(c1)OCO2)C(C)C [Compound 127, Methyl (benzo[d][1,3]dioxole-5-carbonyl)-L-valinate] |
| > 50 µM |  | 3.7 @ |  | COC(=O)[C@H](Cc1ccccc1)NC(=O)c1ccc2c(c1)OCO2 [Compound 128, Methyl (benzo[d][1,3]dioxole-5-carbonyl)-L-phenylalaninate] |
| 12 µM |  |  | 7.5 @ | CCOC(=O)CC[C@H](NC(=O)c1ccc2c(c1)OCO2)C(=O)OCC [Compound 129, Diethyl (benzo[d][1,3]dioxole-5-carbonyl)-L-glutamate] |
| 0.5 µM |  |  |  | CCOC(=O)[C@@H](CC(C)C)NC(=O)c1ccc2c(c1)OCO2 [Compound 130, Ethyl (benzo[d][1,3]dioxole-5-carbonyl)-D-leucinate] |
|  | 5.6 @ |  |  | CCOC(=O)CC[C@H](NC(=O)c1ccc(C)c(C)n1)C(=O)OCC [Compound 131, Diethyl (5,6-dimethylpicolinoyl)-L-glutamate] |
| > 50 µM | 2.6 @ |  |  | CCCCc1ccc(C(=O)N[C@@H](Cc2ccccc2)C(=O)OC)nc1 [Compound 132, Methyl (5-butylpicolinoyl)-L-phenylalaninate] |
| > 50 µM | 2.7 @ |  |  | CCOC(=O)[C@@H](NC(=O)c1ccc2ccccc2n1)C(C)C [Compound 133, Ethyl (quinoline-2-carbonyl)-L-valinate] |
|  | 5.3 @ |  |  | CCOC(=O)[C@H](CC(C)C)NC(=O)/C=C/c1ccccc1 [Compound 135, Ethyl cinnamoyl-L-leucinate] |
| 23 µM |  | 5.4 @ |  | CCOC(=O)[C@@H](NC(=O)/C=C/c1ccccc1)C(C)C [Compound 136, Ethyl cinnamoyl-L-valinate] |
|  | 4.3 @ |  |  | CCOC(=O)[C@@H](NC(=O)/C=C/c1ccccc1)[C@@H](C)CC [Compound 137, Ethyl cinnamoyl-L-isoleucinate] |
